Measurements reported in patent publication US10172868B2, “Substituted quinazolines for inhibiting kinase activity” (NeuPharma, Inc., priority 2013, dated 2019).

Key:
H1975 cells = assay: Inhibition of cancer cell growth, MTT assay, H1975; details: Homo sapiens, NCI-H1975, 72 h, read-out: IC50 in H1975 cells
Description: Inhibition of cell growth by compounds was measured using MTT assay (Mosmann, T., Journal of Immunological Methods, 1983, 65, 55-63). Tumor cell lines were purchased from ATCC (American Type Culture Collection, Manassas, Va.). All cell lines were maintained in RPMI 1640 (Hyclone) supplemented with 10% fetal bovine serum (FBS, Hyclone), glutamine (2 mM, Hyclone), and antibiotics (penicillin 100 U/mL and streptomycin 50 μg/mL) at 37° C. in a humidified atmosphere of 5% CO2 in air. Taxol (as a positive control. Sigma) and compounds were dissolved in DMSO (Sigma), and the final concentration of DMSO in the medium was 1%. Tumor cells were plated in 96-well plates at densities of about 4000 cells/well of a 96-well plate and allowed to adhere/grow for 24 h. They were then treated with various concentrations of drug for 72 h, 3-(4,5-Dimethylthiazol-2-yl)-2,5-diphenyltetrazolium bromide (MTT, Sigma) was used to determine the number of viable cells at the time of compound addition and the number of cells remaining after 72 h compound exposure. The number of cells remaining after 72 h was compared to the number of viable cells at the time of compound addition by measuring the absorbance at 570 nm, allowing for the calculation of growth inhibition.
All concentrations of compounds were tested in triplicate and controls were averaged over 4 wells. IC50 was calculated by plotting the concentration of compound vs the percentage of inhibition in treated wells using GraphPad Prism 5.

EGFR (ErbB1) T790M L858R = EGFR (ErbB1) T790M L858R (Homo sapiens (Human), UniProt P00533, L858R/T790M); assay: Z'-LYTE kinase inhibition assay, EGFR L858R/T790M; type: biochemical; details: for inhibition at 0.0137 µM: read-out: % inhibition against EGFR L858R/T790M (Compound at 0.0137 μM); for IC50: read-out: IC50 against EGFR L858R/T790M
Description: Inhibitory activities of compounds against BTK, EGFR and EGFR mutants (EGFR L858R, EGFR T790M, EGFR L858R/T790M), FGFR1, FGFR2, JAK2, JAK3 and KDR were measured by Invitrogen using Z'-LYTE® Method as briefly described in the following. Test Compounds are screened in 1% DMSO (final) in the well. For 10 point titrations, 3-fold serial dilutions are conducted from the starting concentration. All ATP Solutions are diluted to a 4× working concentration in Kinase Buffer (50 mM HEPES pH 7.5, 0.01% BRIJ-35, 10 mM MgCl2, 1 mM EGTA). Peptide/Kinase Mixtures are diluted to a 2× working concentration in the appropriate Kinase Buffers as described below. (iv) Peptide/Kinase Mixtures for Measurement of EGFR (ErbB1) T790M L858R: The 2×EGFR (ErbB1) […] mixture is prepared in 50 mM HEPES pH 6.5, 0.01% BRIJ-35, 10 mM MgCl2, 1 mM EGTA, 0.02% NaN3. […] After the 1 hour Kinase Reaction incubation, 5 μL of a 1:64 dilution of Development Reagent B is added. Reaction starts by 30-second shaking of mixture consisting of 2.5 μL 4× test compound, […] 2× kinase reaction mixture and 2.5 μL 4×ATP Solution on Bar-coded Corning, low volume NBS, black 384-well plate (Corning Cat. #3676). Then the mixture is incubated for 60-minute at room temperature for the kinase reaction, followed by addition of 5 μL of a 1:1024 dilution of development reagent A and 30-second plate shake. The mixture is then incubated for another 60-minute at room temperature for development reaction. Finally fluorescence is read by plate reader. To determine IC50 of a compound against EGFR, EGFR mutant and other kinases, a series of concentrations of the compound were tested for the inhibition.

EGFR (ErbB1) = EGFR (ErbB1) (Homo sapiens (Human), UniProt P00533); assay: Z'-LYTE kinase inhibition assay, EGFR; type: biochemical; details: read-out: % inhibition against EGFR (Compound at 0.041 μM)
Description: Inhibitory activities of compounds against BTK, EGFR and EGFR mutants (EGFR L858R, EGFR T790M, EGFR L858R/T790M), FGFR1, FGFR2, JAK2, JAK3 and KDR were measured by Invitrogen using Z'-LYTE® Method as briefly described in the following. Test Compounds are screened in 1% DMSO (final) in the well. For 10 point titrations, 3-fold serial dilutions are conducted from the starting concentration. All ATP Solutions are diluted to a 4× working concentration in Kinase Buffer (50 mM HEPES pH 7.5, 0.01% BRIJ-35, 10 mM MgCl2, 1 mM EGTA). Peptide/Kinase Mixtures are diluted to a 2× working concentration in the appropriate Kinase Buffers as described below. (i) Peptide/Kinase Mixtures for Measurement of EGFR (ErbB1): The 2×EGFR (ErbB1)/[…] mixture is prepared in 50 mM HEPES pH 7.5, 0.01% BRIJ-35, 10 mM MgCl2. 4 mM MnCl2, 1 mM EGTA, 2 mM DTT. The final 10 μL Kinase Reaction consists of 1.1-5.25 ng EGFR (ErbB1) and 2 μM […] in 50 mM HEPES pH 7.5, 0.01% BRIJ-35, 10 mM MgCl2, 2 mM MnCl2. 1 mM EGTA, 1 mM DTT. After the 1 hour Kinase Reaction incubation, 5 μL of a 1:64 dilution of Development Reagent B is added. Reaction starts by 30-second shaking of mixture consisting of 2.5 μL 4× test compound, […] 2× kinase reaction mixture and 2.5 μL 4×ATP Solution on Bar-coded Corning, low volume NBS, black 384-well plate (Corning Cat. #3676). Then the mixture is incubated for 60-minute at room temperature for the kinase reaction, followed by addition of 5 μL of a 1:1024 dilution of development reagent A and 30-second plate shake. The mixture is then incubated for another 60-minute at room temperature for development reaction. Finally fluorescence is read by plate reader. To determine IC50 of a compound against EGFR, EGFR mutant and other kinases, a series of concentrations of the compound were tested for the inhibition.

Chain of EGFR (ErbB1) T790M L858R (P00533 25-1210 T790M/L858R): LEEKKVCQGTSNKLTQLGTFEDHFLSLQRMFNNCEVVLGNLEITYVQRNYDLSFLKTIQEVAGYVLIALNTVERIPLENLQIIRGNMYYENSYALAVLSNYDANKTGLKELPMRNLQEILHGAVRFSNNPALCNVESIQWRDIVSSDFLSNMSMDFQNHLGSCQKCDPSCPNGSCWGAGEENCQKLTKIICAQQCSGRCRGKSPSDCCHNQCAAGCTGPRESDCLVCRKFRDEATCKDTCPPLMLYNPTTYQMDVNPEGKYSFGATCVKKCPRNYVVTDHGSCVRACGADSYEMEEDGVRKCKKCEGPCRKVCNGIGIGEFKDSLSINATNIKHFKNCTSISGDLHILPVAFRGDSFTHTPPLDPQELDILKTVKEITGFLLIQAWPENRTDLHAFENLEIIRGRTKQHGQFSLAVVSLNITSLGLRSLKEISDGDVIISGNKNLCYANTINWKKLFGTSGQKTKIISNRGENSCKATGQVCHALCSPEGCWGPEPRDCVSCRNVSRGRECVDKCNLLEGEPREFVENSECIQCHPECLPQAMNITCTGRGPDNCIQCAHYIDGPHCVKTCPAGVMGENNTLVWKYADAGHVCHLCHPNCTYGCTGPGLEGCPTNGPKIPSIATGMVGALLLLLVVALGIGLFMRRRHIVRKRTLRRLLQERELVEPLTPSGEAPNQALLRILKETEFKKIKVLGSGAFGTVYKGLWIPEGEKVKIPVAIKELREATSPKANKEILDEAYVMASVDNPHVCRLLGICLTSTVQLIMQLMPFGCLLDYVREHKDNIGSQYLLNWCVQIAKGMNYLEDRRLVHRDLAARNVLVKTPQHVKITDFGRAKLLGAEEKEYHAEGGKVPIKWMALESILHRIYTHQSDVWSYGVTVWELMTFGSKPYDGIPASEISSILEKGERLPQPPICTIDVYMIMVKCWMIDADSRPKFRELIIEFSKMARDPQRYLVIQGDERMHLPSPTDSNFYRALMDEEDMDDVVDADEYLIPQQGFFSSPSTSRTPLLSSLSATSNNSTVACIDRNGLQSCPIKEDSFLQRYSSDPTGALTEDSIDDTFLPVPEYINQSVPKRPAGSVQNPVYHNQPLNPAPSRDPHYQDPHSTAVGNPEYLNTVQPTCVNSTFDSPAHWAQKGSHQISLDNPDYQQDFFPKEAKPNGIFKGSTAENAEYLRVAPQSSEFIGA
Chain of EGFR (ErbB1) (P00533 25-1210): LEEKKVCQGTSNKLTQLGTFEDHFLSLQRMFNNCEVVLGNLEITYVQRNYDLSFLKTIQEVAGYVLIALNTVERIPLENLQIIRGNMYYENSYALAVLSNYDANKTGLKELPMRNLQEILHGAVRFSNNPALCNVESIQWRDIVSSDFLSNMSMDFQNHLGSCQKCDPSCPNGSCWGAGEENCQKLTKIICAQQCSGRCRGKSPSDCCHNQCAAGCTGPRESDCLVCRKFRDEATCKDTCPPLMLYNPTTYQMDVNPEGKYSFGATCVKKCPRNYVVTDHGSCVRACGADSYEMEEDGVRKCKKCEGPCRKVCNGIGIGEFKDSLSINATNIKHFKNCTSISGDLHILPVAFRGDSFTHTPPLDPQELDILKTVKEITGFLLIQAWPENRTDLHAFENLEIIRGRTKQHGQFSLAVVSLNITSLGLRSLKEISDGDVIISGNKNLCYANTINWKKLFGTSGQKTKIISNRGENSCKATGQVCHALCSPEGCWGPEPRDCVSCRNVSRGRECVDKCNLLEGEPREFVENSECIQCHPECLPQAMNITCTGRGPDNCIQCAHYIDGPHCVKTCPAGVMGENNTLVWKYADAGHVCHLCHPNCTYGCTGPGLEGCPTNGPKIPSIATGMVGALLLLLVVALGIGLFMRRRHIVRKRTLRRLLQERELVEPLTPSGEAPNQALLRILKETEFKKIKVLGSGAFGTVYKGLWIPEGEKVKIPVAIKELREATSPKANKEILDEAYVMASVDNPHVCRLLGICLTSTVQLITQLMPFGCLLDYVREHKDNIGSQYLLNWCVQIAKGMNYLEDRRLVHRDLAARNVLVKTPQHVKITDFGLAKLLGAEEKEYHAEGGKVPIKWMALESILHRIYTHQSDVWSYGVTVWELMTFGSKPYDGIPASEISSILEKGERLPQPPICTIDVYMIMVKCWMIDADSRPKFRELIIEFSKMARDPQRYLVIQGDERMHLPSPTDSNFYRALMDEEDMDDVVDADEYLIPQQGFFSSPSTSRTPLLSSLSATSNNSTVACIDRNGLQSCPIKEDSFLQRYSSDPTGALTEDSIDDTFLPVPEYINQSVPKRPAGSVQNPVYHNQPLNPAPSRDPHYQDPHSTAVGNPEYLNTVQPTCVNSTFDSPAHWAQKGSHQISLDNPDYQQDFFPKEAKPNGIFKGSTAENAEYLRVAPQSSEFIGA

Row | SMILES | IC50 (H1975 cells) [nM] | inhibition at 0.0137 µM (EGFR (ErbB1) T790M L858R) [%] | inhibition at 0.041 µM (EGFR (ErbB1)) [%] | IC50 (EGFR (ErbB1) T790M L858R) [nM]
1 | C=CC(=O)Nc1cccc(-c2cccc3cnc(Nc4ccc(N5CCN(C(=O)NC)CC5)cc4)nc23)c1 [Example C083, 4-(4-((8-(3-acrylamidophenyl)quinazolin-2-yl)amino)phenyl)-N-methylpiperazine-1-carboxamide] | 100 to 500 | > 50 | < 50 | 
2 | C=CC(=O)Nc1cccc(-c2cccc3cnc(Nc4ccc(N5CCN(C(=O)CC)CC5)cc4)nc23)c1 [Example C084, N-(3-(2-((4-(4-propionylpiperazin-1-yl)phenyl)amino)quinazolin-8-yl)phenyl)acrylamide] | 100 to 500 | > 50 | < 50 | 
3 | C=CC(=O)Nc1cccc(-c2cccc3cnc(Nc4ccc(N5CCN(S(C)(=O)=O)CC5)cc4)nc23)c1 [Example C092, N-(3-(2-((4-(4-(methylsulfonyl)piperazin-1-yl)phenyl)amino)quinazolin-8-yl)phenyl)acrylamide] | 100 to 500 | < 50 | < 50 | 
4 | C=CC(=O)N1CCC=C(c2cccc3cnc(Nc4ccc(N5CCN(C)CC5)cc4)nc23)C1 [Example C071, 1-(3-(2-((4-(4-methylpiperazin-1-yl)phenyl)amino)quinazolin-8-yl)-5,6-dihydropyridin-1(2H)-yl)prop-2-en-1-one] | > 500 | < 50 | < 50 | 
5 | C=CC(=O)Nc1cccc(-c2cccc3cnc(Nc4ccc(N5CCNC5=O)cc4)nc23)c1 [Example C097, N-(3-(2-((4-(2-oxoimidazolidin-1-yl)phenyl)amino)quinazolin-8-yl)phenyl)acrylamide] | 100 to 500 | < 50 | < 50 | 
6 | C=CC(=O)Nc1cccc(-c2cccc3cnc(Nc4ccc(N5CCN(C(=O)CO)CC5)cc4)nc23)c1 [Example C082, N-(3-(2-((4-(4-(2-hydroxyacetyl)piperazin-1-yl)phenyl)amino)quinazolin-8-yl)phenyl)acrylamide] | 100 to 500 | > 50 | < 50 | 
7 | CN(C)C/C=C/C(=O)Nc1cccc(-c2cccc3cnc(Nc4ccc(N5CCN(C)CC5)cc4)nc23)c1 [Example C052, (E)-4-(dimethylamino)-N-(3-(2-((4-(4-methylpiperazin-1-yl)phenyl)amino)quinazolin-8-yl)phenyl)but-2-enamide] | 100 to 500 | > 50 | < 50 | 
8 | C=CC(=O)Nc1cccc(-c2cccc3cnc(Nc4ccc(-n5ccnc5)cc4)nc23)c1 [Example C094, N-(3-(2-((4-(1H-imidazol-1-yl)phenyl)amino)quinazolin-8-yl)phenyl)acrylamide] | 100 to 500 | < 50 | < 50 | 
9 | C=CC(=O)Nc1ccc(F)c(-c2cccc3cnc(Nc4ccc(N5CCN(C)CC5)cc4)nc23)c1 [Example C067, N-(4-fluoro-3-(2-((4-(4-methylpiperazin-1-yl)phenyl)amino)quinazolin-8-yl)phenyl)acrylamide] | < 100 | > 50 | > 50 | < 100
10 | C=CC(=O)Nc1ccc(Cl)c(-c2cccc3cnc(Nc4ccc(N5CCN(C)CC5)cc4)nc23)c1 [Example C073, N-(4-chloro-3-(2-((4-(4-methylpiperazin-1-yl)phenyl)amino)quinazolin-8-yl)phenyl)acrylamide] | 100 to 500 | > 50 | < 50 | 
11 | C=CC(=O)Nc1cccc(-c2cccc3cnc(Nc4ccc(N5CCN(C)C(CO)C5)cc4)nc23)c1 (centres unmarked) [Example C077, N-(3-(2-((4-(3-(hydroxymethyl)-4-methylpiperazin-1-yl)phenyl)amino)quinazolin-8-yl)phenyl)acrylamide] | < 100 | > 50 | < 50 | < 100
12 | C=CC(=O)Nc1cccc(-c2cccc3cnc(Nc4ccc(N5CCN(C)C(C(=O)OC)C5)cc4)nc23)c1 (centres unmarked) [Example C089, methyl 4-(4-((8-(3-acrylamidophenyl)quinazolin-2-yl)amino)phenyl)-1-methylpiperazine-2-carboxylate] | 100 to 500 | < 50 | < 50 | 

Further lines, results first:

Row | IC50 (H1975 cells) [nM] | inhibition at 0.0137 µM (EGFR (ErbB1) T790M L858R) [%] | inhibition at 0.041 µM (EGFR (ErbB1)) [%] | IC50 (EGFR (ErbB1) T790M L858R) [nM] | SMILES
13 | < 100 | < 50 | < 50 |  | C=CC(=O)Nc1cccc(-c2cccc3cnc(Nc4ccc(N[C@@H]5CCN(C(C)=O)C5)cc4)nc23)c1 [Example C130, (R)-N-(3-(2-((4-((1-acetylpyrrolidin-3-yl)amino)phenyl)amino)quinazolin-8-yl)phenyl)acrylamide]
14 | < 100 | < 50 | < 50 |  | C=CC(=O)Nc1cccc(-c2cccc3cnc(Nc4ccc(NCCF)cc4)nc23)c1 [Example C134, N-(3-(2-((4-((2-fluoroethyl)amino)phenyl)amino)quinazolin-8-yl)phenyl)acrylamide]
15 | 100 to 500 | < 50 | < 50 |  | C=CC(=O)Nc1cc(-c2cccc3cnc(Nc4ccc(N5CCN(C)CC5)cc4)nc23)n[nH]1 [Example C132, N-(3-(2-((4-(4-methylpiperazin-1-yl)phenyl)amino)quinazolin-8-yl)-1H-pyrazol-5-yl)acrylamide]
16 | < 100 | < 50 | < 50 |  | C=CC(=O)Nc1cccc(-c2cccc3cnc(Nc4ccc(N5CCCOCC5)cc4)nc23)c1 [Example C102, N-(3-(2-((4-(1,4-oxazepan-4-yl)phenyl)amino)quinazolin-8-yl)phenyl)acrylamide]
17 | < 100 | < 50 | < 50 |  | C=CC(=O)Nc1cccc(-c2cccc3cnc(Nc4ccc(N5CCN(CC(C)(C)O)CC5)cc4F)nc23)c1 [Example C149, N-(3-(2-((2-fluoro-4-(4-(2-hydroxy-2-methylpropyl)piperazin-1-yl)phenyl)amino)quinazolin-8-yl)phenyl)acrylamide]
18 | < 100 | < 50 | < 50 |  | C=CC(=O)Nc1cccc(-c2cccc3cnc(Nc4ccc(N5CCN(CCOC)CC5)cc4F)nc23)c1 [Example C153, N-(3-(2-((2-fluoro-4-(4-(2-methoxyethyl)piperazin-1-yl)phenyl)amino)quinazolin-8-yl)phenyl)acrylamide]
19 | 100 to 500 | < 50 | < 50 |  | C=CC(=O)Nc1cccc(-c2cccc3cnc(Nc4ccc(N5CCN(CC(N)=O)CC5)c(F)c4)nc23)c1 [Example C164, N-(3-(2-((4-(4-(2-amino-2-oxoethyl)piperazin-1-yl)-3-fluorophenyl)amino)quinazolin-8-yl)phenyl)acrylamide]
20 | < 100 | < 50 | < 50 |  | C=CC(=O)Nc1cccc(-c2cccc3cnc(Nc4ccc(N5CCN(CC(N)=O)CC5)cc4)nc23)c1 [Example C150, N-(3-(2-((4-(4-(2-amino-2-oxoethyl)piperazin-1-yl)phenyl)amino)quinazolin-8-yl)phenyl)acrylamide]
